Test results from publication PMC9413440, “An Iterative Approach Guides Discovery of the FabI Inhibitor Fabimycin, a Late-Stage Antibiotic Candidate with In Vivo Efficacy against Drug-Resistant Gram-Negative Infections” (ACS Central Science, 2022).
Values after ≈ are worked out from the molar mass of the structure shown.

Columns and labels:
[1] = tested on: A. baumannii AR-0033; experiment: MIC, broth microdilution (CLSI); type: cell-based; conditions: Acinetobacter baumannii, AR0033; A. baumannii AR-0033 clinical isolate; † = dose-independent trailing growth
Procedure: (§1) II. Materials and Methods for Biological Experiments
(§2) S. aureus ATCC 29213 and E. coli MG1655 were obtained from the American Type Culture Collection (ATCC). E. coli BW25113 and E. coli JW5503 were obtained from the Keio Collection. AR-bank strains were obtained from the Centers for Disease Control and Prevention and FDA Antibiotic Resistance Isolate Bank.
(§3) Antimicrobial susceptibility tests
(§4) Susceptibility testing was performed in biological triplicate, unless noted otherwise, using the micro-dilution broth method as outlined by the Clinical and Laboratory Standards Institute. Bacteria were cultured with cation-adjusted Mueller Hinton broth (Sigma Aldrich, catalogue number: 90922). […]
(§5) NH3: m/z 391.2 → 171.0. Fabimycin: m/z 405.3 → 145.3. Power analysis was not used to determine the number of replicates. Error bars represent the standard error of the mean of three biological replicates. All compounds evaluated in biological assays were ≥95% pure.

[2] = tested on: A. baumannii AR-0273; experiment: MIC, broth microdilution (CLSI); type: cell-based; conditions: Acinetobacter baumannii, AR0273; A. baumannii AR-0273 clinical isolate
Procedure: as §1, §2, §3, §4, §5

[3] = tested on: A. baumannii AR-0299; experiment: MIC, broth microdilution (CLSI); type: cell-based; conditions: Acinetobacter baumannii, AR0299; A. baumannii AR-0299 clinical isolate; † = dose-independent trailing growth
Procedure: as §1, §2, §3, §4, §5

[4] = tested on: E. coli AR-0048; experiment: MIC, broth microdilution (CLSI); type: cell-based; conditions: Escherichia coli, AR0048; E. coli AR-0048 clinical isolate
Procedure: as §1, §2, §3, §4, §5

[5] = tested on: E. coli AR-0085; experiment: MIC, broth microdilution (CLSI); type: cell-based; conditions: Escherichia coli, AR0085; E. coli AR-0085 clinical isolate
Procedure: as §1, §2, §3, §4, §5

[6] = tested on: E. coli MG1655; experiment: MIC, broth microdilution (CLSI); type: cell-based; conditions: Escherichia coli
Procedure: as §1, §2, §3, §4, §5

[7] = tested on: K. pneumoniae AR-0066; experiment: MIC, broth microdilution (CLSI); type: cell-based; conditions: Klebsiella pneumoniae, AR0066; K. pneumoniae AR-0066 clinical isolate
Procedure: as §1, §2, §3, §4, §5

[8] = tested on: K. pneumoniae AR-0560; experiment: MIC, broth microdilution (CLSI); type: cell-based; conditions: Klebsiella pneumoniae, AR0560; K. pneumoniae AR-0560 clinical isolate
Procedure: as §1, §2, §3, §4, §5

[9] = tested on: K. pneumoniae BAA-2472; experiment: MIC, broth microdilution (CLSI); type: cell-based; conditions: Klebsiella pneumoniae, BAA2472
Procedure: as §1, §2, §3, §4, §5

[10] = tested on: S. aureus ATCC 29213; experiment: MIC, broth microdilution (CLSI); type: cell-based; conditions: Staphylococcus aureus, ATCC29213; S. aureus 29213
Procedure: as §1, §2, §3, §4, §5

[11] = tested on: E. coli ΔtolC (JW5503); experiment: MIC, broth microdilution (CLSI); type: cell-based, Escherichia coli
Procedure: as §1, §2, §3, §4, §5

[12] = tested on: A. baumannii AR-0313; experiment: MIC, broth microdilution (CLSI); type: cell-based; conditions: Acinetobacter baumannii, AR0313; A. baumannii AR-0313 clinical isolate; † = dose-independent trailing growth
Procedure: as §1, §2, §3, §4
(§6) Error bars represent the standard error of the mean of three biological replicates. All compounds evaluated in biological assays were ≥95% pure.

[13] = tested on: K. pneumoniae AR-0113; experiment: MIC, broth microdilution (CLSI); type: cell-based; conditions: Klebsiella pneumoniae, AR0113; K. pneumoniae AR-0113 clinical isolate
Procedure: as §1, §2, §3, §4, §6

[14] = target: A. baumannii FabI (Acinetobacter baumannii, UniProt D0CAD5); experiment: In vitro FabI enzymatic inhibition assay; type: biochemical; conditions: AbFabI; Morrison's quadratic fit; 5 nM enzyme; read-out: Ki app
Procedure: (§7) supplemented with 100 µg/mL ampicillin at 37°C until OD600 reached 0.6-0.7. The cells were induced with 1mM IPTG and incubated for 20 hours at 18°C and spun down at 8000 rpm for 15 minutes. Cell pellet was resuspended in the lysis buffer (50 mM Tris-HCl pH 8.0, 500 mM Na Cl, 20 mM imidazole, 10% glycerol, 0.5 mM TCEP, protease inhibitor and Lysonase) and passed through microfluidizer followed by centrifugation and filtration to remove cell debris. The clarified lysate was supplemented with 20 mM imidazole and passed over a HisTrap column (Cytiva) pre-equilibrated with the wash buffer (50 mM Tris-HCl pH 8.0, 500 mM NaCl, 20 mM imidazole, 10% glycerol, 0.5 mM TCEP). The column was washed with the wash buffer and eluted over a 20-500 mM imidazole gradient. The appropriate fractions were pooled, and the histidine tag was removed by TEV cleavage. The protein mixture was passed over a HisTrap column to separate the cleaved protein from the uncleaved ones. The cleaved protein was pooled and passed over an S75 size exclusion column (GE LifeSciences) pre-equilibrated with 50 mM Tris-HCl pH 8.0, 500 mM NaCl, 0.5 mM TCEP and 10% glycerol. Fractions containing pure protein were pooled, concentrated at 10 mg/mL and stored at -80°C. […]
(§8) In vitro FabI enzymatic inhibition assay
(§9) Recombinant E. coli and A. baummani FabI enzymes were used in a continuous NADH absorbance assay (20 µL in 384w format). Compounds and the Crotonyl-CoA substrate (Sigma–Aldrich 28007) were dispensed into a plate (GeinerBio-One 781101). The reaction was initiated by the addition of a reaction master mix solution containing enzyme and NADH (Sigma–Aldrich N8129) suspended in reaction buffer (50 mM HEPES pH 7.4, 150 mM NaCl, 1 mM EDTA, 0.01 mg/mL BSA, 0.01% Tween). Final concentrations were 5 nM enzyme, 150 μM Crotonyl-CoA, 380 μM NADH, 0.05% DMSO in 1x reaction buffer. After shaking for 5 seconds the reaction was monitored at NADH absorbance (340nm, 25°C) using a Molecular Devices SpectraMax M5 microplate reader. The linear portion of the progress curve was fit using plate-reader software. Percentage activity was calculated relative to DMSO only and no-substrate controls in each plate and the data were fit to Morrison’s quadratic using Graphpad Prism 9.3 to obtain apparent inhibition constant (Ki app) values. […]
(§10) 480 Real-Time PCR System as a function of a temperature ramp (25-95°C; 0.1°/s) and the Tm was calculated using the […]

[15] = target: T1, E. coli FabI (Escherichia coli, UniProt P0AEK4); experiment: In vitro FabI enzymatic inhibition assay; type: biochemical; conditions: for Ki: EcFabI, Morrison's quadratic fit, 5 nM enzyme, read-out: Ki app
T1 construct: His(6) with TEV site (cleaved yes); made in house; host or cells: E. coli BL21(DE3)
Procedure: as §7, §8, §9, §10

T1 sequence (P0AEK4 whole entry): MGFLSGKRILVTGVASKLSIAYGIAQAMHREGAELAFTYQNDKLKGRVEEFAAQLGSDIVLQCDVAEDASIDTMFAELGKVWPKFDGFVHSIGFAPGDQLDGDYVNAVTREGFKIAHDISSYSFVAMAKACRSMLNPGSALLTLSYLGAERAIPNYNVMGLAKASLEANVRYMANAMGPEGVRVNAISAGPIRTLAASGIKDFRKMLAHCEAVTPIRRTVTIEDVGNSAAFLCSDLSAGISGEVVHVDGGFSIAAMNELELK
A. baumannii FabI, sequence (D0CAD5 entry or part of it): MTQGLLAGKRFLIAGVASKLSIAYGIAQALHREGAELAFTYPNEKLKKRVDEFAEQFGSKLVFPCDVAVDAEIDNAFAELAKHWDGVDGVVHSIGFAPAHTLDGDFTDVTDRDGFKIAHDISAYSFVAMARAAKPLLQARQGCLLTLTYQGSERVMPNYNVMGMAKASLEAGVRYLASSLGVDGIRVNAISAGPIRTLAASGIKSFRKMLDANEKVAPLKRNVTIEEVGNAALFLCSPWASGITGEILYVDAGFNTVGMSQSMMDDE

Row | Structure (SMILES) | MIC [1] [µg/mL] | MIC [2] [µg/mL] | MIC [3] [µg/mL] | MIC [4] [µg/mL] | MIC [5] [µg/mL] | MIC [6] [µg/mL] | MIC [7] [µg/mL] | MIC [8] [µg/mL] | MIC [9] [µg/mL] | MIC [10] [µg/mL] | MIC ([11]; Escherichia coli) [µg/mL] | MIC [12] [µg/mL] | MIC [13] [µg/mL] | Ki [14] [nM] | Ki [15] [nM] | MIC ([11]; E. coli ΔtolC = JW5503, efflux-deficient) [µg/mL] | difference in potency between fabimycin and (R)-7 against purified E. coli FabI ([15]; fabimycin relative to (R)-7) [fold]
1 | Cc1c(CN(C)C(=O)/C=C/c2cnc3c(c2)CCCC(=O)N3)oc2ccccc12 [compound 10] | 16 (≈ 41.1 µM) | 16 (≈ 41.1 µM) | 16 (≈ 41.1 µM) | 8 (≈ 20.5 µM) | 8 (≈ 20.5 µM) | 8 (≈ 20.5 µM) | 32 (≈ 82.2 µM) | > 32 | 16 (≈ 41.1 µM) | 0.002 (≈ 0.00514 µM) | 0.031 (≈ 0.0796 µM) | 16 (≈ 41.1 µM) | 32 (≈ 82.2 µM) | 487 ± 101 | 131 ± 22 | – | –
2 | Cc1c(CN(C)C(=O)/C=C/c2cnc3c(c2)CC[C@H](N)C(=O)N3)oc2ccccc12 [fabimycin] | 4 (≈ 9.89 µM) | 4 (≈ 9.89 µM) | 2 (≈ 4.94 µM) | 2 (≈ 4.94 µM) | 1 (≈ 2.47 µM) | 2 (≈ 4.94 µM) | 4 (≈ 9.89 µM) | 4 (≈ 9.89 µM) | 4 (≈ 9.89 µM) | 0.004 (≈ 0.00989 µM) | – | 4 (≈ 9.89 µM) | 4 (≈ 9.89 µM) | 17 ± 3 | 8 ± 2 | 0.016 (≈ 0.0396 µM) | 4.75
3 | Cc1c(CN(C)C(=O)/C=C/c2cnc3c(c2)CC[C@@H](N)C(=O)N3)oc2ccccc12 [(R)-7] | > 128 | > 128 | > 128 | 128 (≈ 316 µM) | 128 (≈ 316 µM) | 64 (≈ 158 µM) | > 128 | > 128 | > 128 | 0.125 (≈ 0.309 µM) | 0.5 (≈ 1.24 µM) | > 128 | > 128 | 109 ± 14 | 38 ± 4 | – | –
